Experimental data: paper PMC9923641 (Molecular Biotechnology, 2023)

Target: α-glucosidase
Assay: enzyme inhibition assay with p-nitrophenyl-D-glycopyranoside substrate
Format: biochemical

Row | SMILES | IC50 [nM]
1 | COc1cc(O)c2c(=O)cc(-c3ccccc3O)oc2c1OC [Skullcapflavone I] | 103 ± 8.43
2 | COc1cccc(O)c1-c1cc(=O)c2c(O)c(OC)c(OC)c(OC)c2o1 [Skullcapflavone II] | 95 ± 11.5
